Data published in BindingDB's records for doi:10.1016/s0968-0896(99)00215-1 (Parke-Davis Pharmaceutical Research, 1999).
pIC50, pKi: −log10 of the molar value.

Molecular target: T1, Dimer of Gag-Pol polyprotein [489-587] (Human immunodeficiency virus 1, UniProt P12497)
T1 construct: 489-587
Test: Protease Inhibition Assay
Description: For determination of IC50 values, HIV-1 protease was added to assay buffer containing inhibitor and the substrate (H-His-Lys-Ala-Arg-Val-Leu- (p-NO2) Phe-Glu-Ala-norleucine-Ser-NH2). The Leu- (p-NO2) Phe bond of the substrate was cleaved by the enzyme, and the substrate and products were separated by reversed-phase HPLC. Absorbance was measured at 220 nm, peak areas were determined, and percentage conversion to product was calculated.

`Cc1ccc(C(C)(C)C)c(SC2C(=O)CC(CCc3ccc(O)cc3)(C3CCCCC3)OC2=O)c1` (stereo unspecified) [3-[(2-tert-butyl-5-methylphenyl)sulfanyl]-6-cyclohexyl-4-hydroxy-6-[2-(4-hydroxyphenyl)ethyl]-5,6-dihydro-2H-pyran-2-one] gave a pIC50 (pH 6.2, 37 °C) of 7.48.
For `Cc1ccc(C(C)(C)C)c(SC2C(=O)CC(CCc3ccc(O)cc3)(C3CC3)OC2=O)c1` (stereo unspecified) [(3-(2-tert-Butyl-5-methyl-phenylsulfanyl)-6-cyclopropyl-4-hydroxy-6-[2-(4-hydroxy-phenyl)-ethyl]-5,6-dihydro-pyran-2-one], the pIC50 (pH 6.2, 37 °C) was 8.10.
With `Cc1cc(SC2C(=O)CC(CCc3ccc(O)cc3)(C3CCCCC3)OC2=O)c(C(C)(C)C)cc1CO` (stereo unspecified) [PD 178390 Analog 21] the pIC50 (pH 6.2, 37 °C) was 8.60.
With `Cc1cc(SC2C(=O)CC(CCc3ccccc3)(C(C)C)OC2=O)c(C(C)(C)C)cc1O` (stereo unspecified) the pKi was 8.96.
Work on `Cc1cc(SC2C(=O)C[C@](CCc3ccccc3)(C(C)C)OC2=O)c(C(C)(C)C)cc1CO` (stereo partly drawn) [(6R)-3-{[2-tert-butyl-4-(hydroxymethyl)-5-methylphenyl]sulfanyl}-4-hydroxy-6-(2-phenylethyl)-6-(propan-2-yl)-5,6-dihydro-2H-pyran-2-one] yielded a pKi of 6.80.
Work on `CCCCC1(CCc2ccc(O)cc2)CC(=O)C(Sc2cc(C)c(OCCO)cc2C(C)(C)C)C(=O)O1` (stereo unspecified) [6-butyl-3-{[2-tert-butyl-4-(2-hydroxyethoxy)-5-methylphenyl]sulfanyl}-4-hydroxy-6-[2-(4-hydroxyphenyl)ethyl]-5,6-dihydro-2H-pyran-2-one] yielded a pIC50 of 8.19.
